Reference: the supplement of paper PMC10307832

Tests used:
Experiment in all cases: relative viability (nuclei count vs DMSO), 5 days (fraction); higher = more cells survive
[1] = compound: CC1=CC=C(C=C1)C(=O)CN2C3=C(CCCC3)SC2=N [Pifithrin_alpha] + CC(C)C[C@H](NC(=O)[C@H](Cc1ccccc1)NC(=O)c1cnccn1)B(O)O [Bortezomib] (partner 0.002 µM)
Method in brief: (§1)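 Lung cancer cell lines in 1536-well plates got either a single drug or a fixed anchor-drug dose together with five library-drug doses (not always all listed) in √10 steps, by pin tool, on the day after seeding. Nuclei were counted after 5 days, and relative viability is the treated-to-vehicle ratio of nuclei counts. Values are medians of duplicate plates.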

Axitinib + Pictilisib = compound: CNC(=O)c1ccccc1Sc1ccc2c(/C=C/c3ccccn3)n[nH]c2c1 [Axitinib] + CS(=O)(=O)N1CCN(Cc2cc3nc(-c4cccc5[nH]ncc45)nc(N4CCOCC4)c3s2)CC1 [Pictilisib] (partner 1 µM)
Method in brief: as §1

Axitinib + Pemetrexed = compound: CNC(=O)c1ccccc1Sc1ccc2c(/C=C/c3ccccn3)n[nH]c2c1 [Axitinib] + Nc1nc2[nH]cc(CCc3ccc(C(=O)N[C@@H](CCC(=O)O)C(=O)O)cc3)c2c(=O)[nH]1 [Pemetrexed] (partner 0.2 µM)
Method in brief: as §1

Bemcentinib + Luminespib = compound: Nc1nc(Nc2ccc3c(c2)CC[C@@H](N2CCCC2)CC3)nn1-c1cc2c(nn1)-c1ccccc1CCC2 [Bemcentinib] + CCNC(=O)c1noc(-c2cc(C(C)C)c(O)cc2O)c1-c1ccc(CN2CCOCC2)cc1 [Luminespib] (partner 0.01 µM)
Method in brief: as §1

Which relative viability ([1]; first compound 3.162 µM) does the source give for NCI-H650 here?
The relative viability was 1.

And the relative viability ([1]; first compound 10 µM)?
Its relative viability is 0.804.

What about the relative viability ([1]; first compound 31.62 µM) of the same cell line?
Its relative viability is 0.51.

What about the relative viability ([1]; first compound 100 µM) of the same cell line?
Its relative viability is 0.725.

What about the relative viability (Axitinib + Pictilisib; first compound 0.005 µM) of the same cell line?
Its relative viability is 0.9.

What about the relative viability (Axitinib + Pictilisib; first compound 0.01581 µM) of the same cell line?
Its relative viability is 1.03.

And the relative viability (Axitinib + Pictilisib; first compound 0.05 µM)?
The relative viability was 0.764.

What about the relative viability (Axitinib + Pictilisib; first compound 0.1581 µM) of the same cell line?
The relative viability was 0.945.

What about the relative viability (Axitinib + Pictilisib; first compound 0.5 µM) of the same cell line?
Its relative viability is 0.846.

And the relative viability (Axitinib + Pemetrexed; first compound 0.005 µM)?
The relative viability was 1.09.

What about the relative viability (Axitinib + Pemetrexed; first compound 0.01581 µM) of the same cell line?
The relative viability was 0.808.

What about the relative viability (Axitinib + Pemetrexed; first compound 0.05 µM) of the same cell line?
The relative viability was 1.04.

What about the relative viability (Axitinib + Pemetrexed; first compound 0.1581 µM) of the same cell line?
Its relative viability is 1.02.

And the relative viability (Axitinib + Pemetrexed; first compound 0.5 µM)?
The relative viability was 0.855.

What about the relative viability (Bemcentinib + Luminespib; first compound 0.04 µM) of the same cell line?
The relative viability was 0.8.

And the relative viability (Bemcentinib + Luminespib; first compound 0.1265 µM)?
Its relative viability is 0.963.

And the relative viability (Bemcentinib + Luminespib; first compound 0.4 µM)?
Its relative viability is 0.922.

And the relative viability (Bemcentinib + Luminespib; first compound 1.265 µM)?
Its relative viability is 0.749.

What about the relative viability (Bemcentinib + Luminespib; first compound 4 µM) of the same cell line?
The relative viability was 0.729.
